The record followed here is ChEMBL document CHEMBL5370683, “Peptide-to-Small Molecule: Discovery of Non-Covalent, Active-Site Inhibitors of β-Herpesvirus Proteases” (ACS Med Chem Lett, 2023).

A short description of series [1]: Inhibition of amino terminal GST tagged HCMV protease (1 to 256 residues) expressed in Escherichia coli BL21 (DE3) cells using 5-carboxyfluorescein [FAM]-RGVVNASSRLAK as peptide substrate incubated for 3 hrs by fluorescence based analysis. On the set-up: species or system Human betaherpesvirus 5.
A short description of series [2]: Inhibition of N-terminal 6 His-tagged HHV6 protease (2 to 230 residues) expressed in Escherichia coli BL21 cells using 5FAM-KPSILNASLTPETVKK as peptide substrate incubated for 3 hrs by fluorescence based analysis. On the set-up: species or system Human betaherpesvirus 6.
The test system of another series is Human betaherpesvirus 5. Nature of the series: Antiviral activity against HCMV infected in HFF cells assessed as reduction in viral replication. Type of series: functional, organism-based. As to conditions: Human betaherpesvirus 5, HFF.
A short description of series [3]: Cytotoxicity against HFF cells assessed as inhibition in cell viability incubated for 5 days by luminescence based analysis. Type of series: toxicity. To be noted: human, time 5 day.
Series [4] is described as follows: Apparent permeability across apical to basolateral side in LLC-PK1 cells at 2 uM incubated for 2 hrs by LC/MS/MS method. Type of series: ADME, cell-based, Sus scrofa. As to conditions: pig.
Series [5] is described as follows: Inhibition of amino terminal GST tagged HCMV protease R9A mutant (1 to 256 residues) expressed in Escherichia coli BL21 (DE3) cells using 5-carboxyfluorescein [FAM]-RGVVNASSRLAK as peptide substrate incubated for 3 hrs by fluorescence based analysis. On the set-up: species or system Human betaherpesvirus 5.
Series [6] can be described thus: Inhibition of N-terminal 6 His-tagged HHV6 protease R9A mutant (2 to 230 residues) expressed in Escherichia coli BL21 cells using 5FAM-KPSILNASLTPETVKK as peptide substrate incubated for 3 hrs by fluorescence based analysis. On the set-up: species or system Human betaherpesvirus 6.
Series [7] is described as follows: Inhibition of amino terminal GST tagged HCMV protease F10A mutant (1 to 256 residues) expressed in Escherichia coli BL21 (DE3) cells using 5-carboxyfluorescein [FAM]-RGVVNASSRLAK as peptide substrate incubated for 3 hrs by fluorescence based analysis. On the set-up: species or system Human betaherpesvirus 5.
Series [8] is described as follows: Inhibition of N-terminal 6 His-tagged HHV6 protease F10A mutant (2 to 230 residues) expressed in Escherichia coli BL21 cells using 5FAM-KPSILNASLTPETVKK as peptide substrate incubated for 3 hrs by fluorescence based analysis. On the set-up: species or system Human betaherpesvirus 6.
Series [9] can be described thus: Inhibition of amino terminal GST tagged HCMV protease L11A mutant (1 to 256 residues) expressed in Escherichia coli BL21 (DE3) cells using 5-carboxyfluorescein [FAM]-RGVVNASSRLAK as peptide substrate incubated for 3 hrs by fluorescence based analysis. On the set-up: species or system Human betaherpesvirus 5.
The nature of series [10]: Inhibition of N-terminal 6 His-tagged HHV6 protease L11A mutant (2 to 230 residues) expressed in Escherichia coli BL21 cells using 5FAM-KPSILNASLTPETVKK as peptide substrate incubated for 3 hrs by fluorescence based analysis. On the set-up: species or system Human betaherpesvirus 6.
Series [11] in a line: Inhibition of amino terminal GST tagged HCMV protease P12A mutant (1 to 256 residues) expressed in Escherichia coli BL21 (DE3) cells using 5-carboxyfluorescein [FAM]-RGVVNASSRLAK as peptide substrate incubated for 3 hrs by fluorescence based analysis. On the set-up: species or system Human betaherpesvirus 5.
Series [12] in a line: Inhibition of N-terminal 6 His-tagged HHV6 protease P12A mutant (2 to 230 residues) expressed in Escherichia coli BL21 cells using 5FAM-KPSILNASLTPETVKK as peptide substrate incubated for 3 hrs by fluorescence based analysis. On the set-up: species or system Human betaherpesvirus 6.

SMILES strings stand for the structures. Peptide text beside a SMILES is read from it.

What is called IC50 is the concentration needed to halve the response being measured. Higher therefore signals a need for much substance. The EC50 is the concentration that produces a half-maximal response. By CC50 is commonly meant the concentration at which the toxic effect on the cells reaches its halfway point. Usually Papp A→B stands for the apparent permeability from the apical to the basolateral side of a cell layer. With `Cc1ccc([C@@H](c2cn(C3CCCC3)nc2-c2ccccc2C)n2cccc(N3C[C@H](C(=O)NC45CCC(CC4)NC5=O)N(C)C3=O)c2=O)cc1`, the IC50 in series [1] is 2500 nM; in series [2], 330 nM. For the same compound, in the series on Human betaherpesvirus 5, the EC50 is 60000 nM. For the same compound, the cytotoxic concentration (CC50) at 120 h in series [3] stood at 51000 nM. Further, the Papp A→B at 2 h, 2 µM in [4] was found to be 1.3 ×10⁻⁶ cm/s.

In the case of `CC[C@H](C)[C@H](NC(=O)[C@H](Cc1ccccc1)NC(C)=O)C(=O)N[C@H](C(=O)NCC(=O)N[C@@H](Cc1c[nH]cn1)C(=O)N[C@@H](Cc1ccc(O)cc1)C(=O)N[C@@H](Cc1c[nH]c2ccccc12)C(=O)N[C@H](C(=O)N[C@@H](C)C(=O)N[C@@H](Cc1ccccc1)C(=O)N[C@@H](CC(C)C)C(=O)N1CCC[C@H]1C(=O)N[C@@H](CS)C(=O)NCC(N)=O)C(C)C)[C@@H](C)O` (Ac-FITGHYWVAFLPCG-NH2), the IC50 is 92 nM in [5] and < 76 nM in series [6].

Regarding `CC[C@H](C)[C@H](NC(=O)[C@H](Cc1ccccc1)NC(C)=O)C(=O)N[C@H](C(=O)NCC(=O)N[C@@H](Cc1c[nH]cn1)C(=O)N[C@@H](Cc1ccc(O)cc1)C(=O)N[C@@H](Cc1c[nH]c2ccccc12)C(=O)N[C@H](C(=O)N[C@@H](CCCNC(=N)N)C(=O)N[C@@H](C)C(=O)N[C@@H](CC(C)C)C(=O)N1CCC[C@H]1C(=O)N[C@@H](CS)C(=O)NCC(N)=O)C(C)C)[C@@H](C)O` (Ac-FITGHYWVRALPCG-NH2), the IC50 in [7] and in series [8] was < 76 nM each time.

On to `CC[C@H](C)[C@H](NC(=O)[C@H](Cc1ccccc1)NC(C)=O)C(=O)N[C@H](C(=O)NCC(=O)N[C@@H](Cc1c[nH]cn1)C(=O)N[C@@H](Cc1ccc(O)cc1)C(=O)N[C@@H](Cc1c[nH]c2ccccc12)C(=O)N[C@H](C(=O)N[C@@H](CCCNC(=N)N)C(=O)N[C@@H](Cc1ccccc1)C(=O)N[C@@H](C)C(=O)N1CCC[C@H]1C(=O)N[C@@H](CS)C(=O)NCC(N)=O)C(C)C)[C@@H](C)O` (Ac-FITGHYWVRFAPCG-NH2), for which the IC50 in series [9] and in [10] was < 76 nM throughout.

As for `CC[C@H](C)[C@H](NC(=O)[C@H](Cc1ccccc1)NC(C)=O)C(=O)N[C@H](C(=O)NCC(=O)N[C@@H](Cc1c[nH]cn1)C(=O)N[C@@H](Cc1ccc(O)cc1)C(=O)N[C@@H](Cc1c[nH]c2ccccc12)C(=O)N[C@H](C(=O)N[C@@H](CCCNC(=N)N)C(=O)N[C@@H](Cc1ccccc1)C(=O)N[C@@H](CC(C)C)C(=O)N[C@@H](C)C(=O)N[C@@H](CS)C(=O)NCC(N)=O)C(C)C)[C@@H](C)O` (Ac-FITGHYWVRFLACG-NH2), the IC50 in [11] and in series [12] was < 76 nM in each case.
